Structures can show the parent of a compound that is named as a salt. Where two headings read alike, the source gives them in different places.
What was measured:
[1] = tested on: Huh7 cells expressing a subgenomic RNA replicon of Con1 (genotype 1b) sequence origin
in vitro = conditions: human
[2] = tested on: Huh7 cells expressing a subgenomic RNA replicon of Con1 (genotype 1b) sequence origin; assay: microbe, parasite or virus in culture; conditions: Hepatitis C virus
[3] = Huh-7, read-out: IC50 (uM) [SG]
[4] = Huh-7, read-out: Max Effect@CC30 (inhibition)
[5] = GETYPE1B, Huh-7, 72 h, read-out: Max Effect @CC30 (inhibition)

NC1CCC(c2ccc(Cl)c(Cl)c2)c2ccccc21 (racemic)
Synergy Score [1]: 1.51
TI (CC50/IC50) [1]: 1.252
CC50 (in vitro; CC50): 7.84 µM
IC50 ([2]; Huh-7, 48 h): 6.26 µM
Emax ([2]; Huh-7, 48 h, read-out: Max Effect): 99%

O=C(O)CN(CC(=O)O)c1ccccc1OCCOc1ccccc1N(CC(=O)O)CC(=O)O [1,2-Bis-(2-aminophenoxy)ethane N,N,N,N,-tetreacetic acid, reference compound]
IC50 [1]: 14.5 µM

O=[N+]([O-])c1ccc2nc(N3CCNCC3)ccc2c1 [6-Nitroquipazine, reference compound]
IC50 [1]: 16.4 µM

CC(=O)O[C@@]12CO[C@@H]1C[C@H](O)[C@@]1(C)C(=O)[C@H](O)C3=C(C)[C@@H](O)C[C@@](O)([C@@H](OC(=O)c4ccccc4)[C@H]21)C3(C)C [10-Deacetylbaccatine Iii, reference compound]
IC50 [1]: 10.3 µM

N#C/C(=C/c1ccc(O)c(O)c1)C(=O)NCc1ccccc1 [AG-490, tyrphostin AG-490, reference compound]
IC50 [1]: 5.03 µM

COc1ccc(C[C@H]2NC[C@H](O)[C@H]2OC(C)=O)cc1 [Anisomycin, reference compound]
IC50 [1]: 0.608 µM

CC(C)(C)c1cc(O)c(C(C)(C)C)cc1O [BHQ, reference compound]
IC50 [1]: 23.3 µM

Cc1ccc(S(=O)(=O)/C=C/C#N)cc1 [Bay 11-7082, reference compound]
IC50 [1]: 15 µM

Nc1nc(-c2nn(Cc3ccccc3F)c3ncccc23)ncc1C1CC1 [Bay 41-2272, reference compound]
IC50 [1]: 0.754 µM

CC1=C(/C=C/C(C)O)C(C)(C)CCC1 (stereo not drawn) [Beta-Ionol]
IC50 [1]: 21 µM

Nc1ccccc1NC(=O)CCCCCCC(=O)Nc1ccccc1 [CAY10433, reference compound]
IC50 [1]: 7.88 µM

C/C1=C2/[N-]C([C@H](CC(N)=O)[C@@]2(C)CCC(=O)NC[C@@H](C)OP(=O)([O-])O[C@H]2[C@@H](O)[C@@H](n3cnc4cc(C)c(C)cc43)O[C@@H]2CO)[C@]2(C)N=C(/C(C)=C3N=C(/C=C4N=C1[C@@H](CCC(N)=O)C\4(C)C)[C@@H](CCC(N)=O)[C@]\3(C)CC(N)=O)[C@@H](CCC(N)=O)[C@]2(C)CC(N)=O.[CH2-][C@H]1O[C@@H](n2cnc3c(N)ncnc32)[C@@H](O)[C@@H]1O.[Co+3] [Cobamamide, cobamamide, reference compound]
IC50 [1]: 0.41 µM

O=c1cc(N2CCOCC2)oc2c1ccc1ccccc12 [DNA-PK inhibitor II, reference compound]
IC50 [1]: 6.52 µM

C[C@]12CC[C@H]3[C@@H](CCC4=CC(=O)CC[C@@]43C)[C@@H]1CC[C@@H]2C(=O)CO [Desoxycorticosterone (e.g., acetate), deoxycorticosterone, reference compound]
IC50 [1]: 14.7 µM

COc1ccc(-c2nc(C(=O)N3CCN(C)CC3)sc2-c2ccc(OC)cc2)cc1 [FR122047, reference compound]
IC50 [1]: 23 µM

OCCN1CCN(CC/C=C2/c3ccccc3Sc3ccc(C(F)(F)F)cc32)CC1 [Flupentixol (e.g., dihydrochloride), Flupentixol, reference compound]
IC50 [1]: 3.6 µM

C/C1=C2/[N-][C@H]([C@H](CC(N)=O)[C@@]2(C)CCC(=O)NC[C@@H](C)OP(=O)([O-])O[C@H]2[C@@H](O)[C@@H](n3cnc4cc(C)c(C)cc43)O[C@@H]2CO)[C@]2(C)N=C(/C(C)=C3N=C(/C=C4N=C1[C@@H](CCC(N)=O)C\4(C)C)[C@@H](CCC(N)=O)[C@]\3(C)CC(N)=O)[C@@H](CCC(N)=O)[C@]2(C)CC(N)=O.[Co+3].[OH-] [Hydroxocobalamin, hydroxocobalamin, reference compound]
IC50 [1]: 1.33 µM

CCC(Cc1c(I)cc(I)c(O)c1I)C(=O)O (centres unmarked) [Iophenoxic acid, reference compound]
IC50 [1]: 10.6 µM

CCN(CC)c1ccc(C(=C2C=CC(=[N+](CC)CC)C=C2)c2cc(S(=O)(=O)O)ccc2S(=O)(=O)[O-])cc1 [Isosulfan Blue, reference compound]
IC50 [1]: 24.9 µM

Cc1ccc(NCCCc2ccccc2)c(N)c1 [JSH-23, reference compound]
IC50 [1]: 2.55 µM

C/C1=C2/[N-][C@H]([C@H](CC(N)=O)[C@@]2(C)CCC(=O)NC[C@H](C)OP(=O)([O-])O[C@H]2[C@@H](O)[C@@H](n3cnc4cc(C)c(C)cc43)O[C@@H]2CO)[C@]2(C)N=C(/C(C)=C3N=C(/C=C4N=C1[C@@H](CCC(N)=O)C\4(C)C)[C@@H](CCC(N)=O)[C@]\3(C)CC(N)=O)[C@@H](CCC(N)=O)[C@]2(C)CC(N)=O.[CH3-].[Co+3] [Mecobalamin, mecobalamin, reference compound]
IC50 [1]: 0.179 µM

C[C@@H]1C[C@H]2[C@@H]3CCC4=CC(=O)C=C[C@]4(C)[C@@]3(Cl)[C@@H](O)C[C@]2(C)[C@@]1(O)C(=O)CCl [Mometasone (e.g., furoate), mometasone, reference compound]
IC50 [1]: 11.3 µM

O=C1C(Cl)=C(NCCN2CCOCC2)C(=O)c2ncccc21 [NSC 663284, reference compound]
IC50 [1]: 0.614 µM

CCCCC1C(=O)N(c2ccccc2)N(c2ccc(O)cc2)C1=O (centres unmarked) [Oxyphenbutazone (e.g., hydrate), oxyphenbutazone, reference compound]
IC50 [1]: 4.17 µM

Nc1ccc(C(=O)O)c(O)c1 [P-Aminosalicylic acid, reference compound]
IC50 [1]: 13.2 µM

O=C1Nc2ccc3ncsc3c2/C1=C/c1cnc[nH]1 [PKR inhibitor, reference compound]
IC50 [1]: 1.75 µM

CCCCC(CC)COC(=O)c1ccc(N(C)C)cc1 (centres unmarked) [Padimate O]
IC50 [1]: 5.44 µM

COc1ccc(CCN(C)CCC[C@](C#N)(c2ccc(OC)c(OC)c2)C(C)C)cc1OC [R(+)-Verapamil (e.g., hydrochloride), R(+)-Verapamil, reference compound]
IC50 [1]: 15.7 µM

CC(=O)[O][Pt]([NH2])([Cl])([Cl])([NH]C1CCCCC1)[O]C(C)=O [Satraplatin, reference compound]
IC50 [1]: 4.8 µM

CN[C@H]1CC[C@@H](c2ccc(Cl)c(Cl)c2)c2ccc(C(N)=S)cc21 [Sertraline A-Ring Thiocarboxamide, (5S,8S)-5-(3,4-dichlorophenyl)-8-(methylamino)-5,6,7,8-tetrahydronaphthalene-2-carbothioamide]
CC50 (in vitro; CC50 (uM) [SG]): 13.2 µM
IC50 [2, 3]: 7.19 µM

CN[C@H]1CC[C@@H](c2ccc(Cl)c(Cl)c2)c2ccc(C(=O)Nc3ccccn3)cc21 [Sertraline A-ring Pyridine Carboxamide, (5S,8S)-5-(3,4-dichlorophenyl)-8-(methylamino)-N-(pyridin-2-yl)-5,6,7,8-tetrahydronaphthalene-2-carboxamide]
CC50 (in vitro; CC50 (uM) [SG]): 7.05 µM
IC50 [2, 3]: 4.43 µM
Emax [2, 4]: 61.3%

CNC1CCC(c2ccc(Cl)c(Cl)c2)c2ccsc21 (centres unmarked) [Sertraline A-ring Thiophene]
CC50 (in vitro; CC50 (uM) [SG]): 18.8 ± 0.93 µM
IC50 [2, 3]: 8.27 ± 0.46 µM
Emax [2, 4]: 80.8 ± 2.55%
Emax ([2]; Huh-7, read-out: Max effect @CC30 (%)): 80.8 ± 2.55%
IC50 ([2]; Huh-7, read-out: SA IC50 (uM)): 8.27 ± 0.46 µM

CN[C@H]1CC[C@@H](c2ccc(Cl)c(Cl)c2)c2ccc(N)cc21 [Sertraline Aniline, (1S,4S)-4-(3,4-dichlorophenyl)-N1-methyl-1,2,3,4-tetrahydronaphthalene-1,7-diamine]
CC50 (in vitro; CC50 (uM)): 8.72 µM
CC50 (in vitro; CC50 (uM) [SG]): 8.72 µM
Emax [2, 5]: 50%
IC50 ([2]; Huh-7, 72 h): 6 µM
IC50 [2, 3]: 6 µM
Emax [2, 4]: 50%

CNC1CCC(c2cccc(OC)c2)c2ccccc21 (centres unmarked) [Sertraline B ring m-Methoxy, 4-(3-methoxyphenyl)-N-methyl-1,2,3,4-tetrahydronaphthalen-1-amine]
CC50 (in vitro; CC50 (uM) [SG]): > 50 µM
IC50 [2, 3]: 28.8 µM

CNC1CCC(c2ccc(OC)cc2)c2ccccc21 (centres unmarked) [Sertraline B-Ring Para-Methoxy, 4-(4-methoxyphenyl)-N-methyl-1,2,3,4-tetrahydronaphthalen-1-amine]
CC50 (in vitro; CC50 (uM) [SG]): 51.1 µM
IC50 [2, 3]: 26.8 µM

CN[C@H]1CC[C@@H](c2ccc(Cl)c(Cl)c2)c2ccc(I)cc21 [Sertraline Iodide, (1S,4S)-4-(3,4-dichlorophenyl)-7-iodo-N-methyl-1,2,3,4-tetrahydronaphthalen-1-amine]
CC50 (in vitro; CC50 (uM)): 8.92 µM
CC50 (in vitro; CC50 (uM) [SG]): 8.92 µM
Emax [2, 5]: 25%
IC50 ([2]; Huh-7, 72 h): 6.57 µM
IC50 [2, 3]: 6.57 µM
Emax [2, 4]: 25%

CN[C@H]1CC[C@@H](c2ccc(Cl)c(Cl)c2)c2ccc(S(=O)(=O)NCCO)cc21 [Sertraline Sulfonamide Ethanol, (5S,8S)-5-(3,4-dichlorophenyl)-N-(2-hydroxyethyl)-8-(methylamino)-5,6,7,8-tetrahydronaphthalene-2-sulfonamide]
CC50 (in vitro; CC50 (uM)): 13.8 µM
CC50 (in vitro; CC50 (uM) [SG]): 13.8 µM
Emax [2, 5]: 80%
IC50 ([2]; Huh-7, 72 h): 8.13 µM
IC50 [2, 3]: 8.13 µM
Emax [2, 4]: 80%

N#CC(C#N)=Cc1ccc(O)c(O)c1 [Tyrphostin 23, tyrphostin 23, reference compound]
IC50 [1]: 14.6 µM

N#CC(C#N)=Cc1cc(O)c(O)c(O)c1 [Tyrphostin 25, tyrphostin 25, reference compound]
IC50 [1]: 16 µM

N#C/C(=C\c1ccc(O)c(O)c1)C(N)=O [Tyrphostin 46, tyrphostin A46, reference compound]
IC50 [1]: 21.2 µM

COc1cc2ncnc(Nc3cccc(Cl)c3)c2cc1OC [Tyrphostin Ag 1478, tyrphostin AG 1478, reference compound]
IC50 [1]: 3.41 µM

CC(=O)ON=C1C(=O)N(Cc2cc(Cl)ccc2Cl)c2ccc(Cl)cc21 [UCH-L1 inhibitor, reference compound]
IC50 [1]: 17.2 µM

Cc1cc(N)c2ccccc2c1O [Vitamin K5]
IC50 [1]: 19.6 µM

CN[C@H]1CC[C@@H](c2ccc(Cl)c(Cl)c2)c2ccc(C(=O)NCC(=O)OC)cc21 [methyl 2-((1S,4S)-1-(3,4-dichlorophenyl)-4-(methylamino)-1,2,3,4-tetrahydronaphthalene-6-carboxamido)acetate]
CC50 (in vitro; CC50 (uM) [SG]): 22.9 µM
IC50 [2, 3]: 6.69 µM

N-Tosyl-L-phenylalanine chloromethyl ketone [reference compound]
IC50 [1]: 16.7 µM
